The text below walks through data of the supplement of paper PMC10307832.

Assay in all cases: relative viability (nuclei count vs DMSO), 5 days (fraction); higher = more cells survive
Compound in the assay “ALW-II-49-7 + OSI-027”: Cc1ccc(C(=O)Nc2cccc(C(F)(F)F)c2)cc1Nc1cncc(C(N)=O)c1 [ALW-II-49-7] + COc1cccc2cc(-c3nc([C@H]4CC[C@H](C(=O)O)CC4)n4ncnc(N)c34)[nH]c12 [OSI-027] (partner 0.5 µM)
The essentials:
(§1)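 Values are medians from duplicate plates. Each reflects relative viability, defined as the nuclei count of treated wells over that of vehicle wells. Lung cancer cell lines in 1536-well plates were pin-tool dosed one day after seeding with one drug alone or with a fixed anchor-drug dose plus five library-drug doses (not always all listed) in √10 steps, then fixed, stained and imaged at 4× after 5 days.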

Compound in the assay “ALW-II-49-7 + Navitoclax”: Cc1ccc(C(=O)Nc2cccc(C(F)(F)F)c2)cc1Nc1cncc(C(N)=O)c1 [ALW-II-49-7] + CC1(C)CCC(c2ccc(Cl)cc2)=C(CN2CCN(c3ccc(C(=O)NS(=O)(=O)c4ccc(N[C@H](CCN5CCOCC5)CSc5ccccc5)c(S(=O)(=O)C(F)(F)F)c4)cc3)CC2)C1 [Navitoclax] (partner 0.5 µM)
An outline of the steps: as §1

Compound in the assay “ALW-II-49-7 + Pictilisib”: Cc1ccc(C(=O)Nc2cccc(C(F)(F)F)c2)cc1Nc1cncc(C(N)=O)c1 [ALW-II-49-7] + CS(=O)(=O)N1CCN(Cc2cc3nc(-c4cccc5[nH]ncc45)nc(N4CCOCC4)c3s2)CC1 [Pictilisib] (partner 1 µM)
The essentials:
as §1

For NCI-H2347, the relative viability in the assay with ALW-II-49-7 + OSI-027 (first compound 0.08 µM) is 0.386; with ALW-II-49-7 + OSI-027 (first compound 0.253 µM), 0.396; with ALW-II-49-7 + OSI-027 (first compound 0.8 µM), 0.443; with ALW-II-49-7 + OSI-027 (first compound 2.53 µM), 0.36; with ALW-II-49-7 + OSI-027 (first compound 8 µM), 0.276; with ALW-II-49-7 + Navitoclax (first compound 0.08 µM), 0.899. For the same cell line, the relative viability in the assay with ALW-II-49-7 + Navitoclax (first compound 0.253 µM) came out at 0.807; with ALW-II-49-7 + Navitoclax (first compound 0.8 µM), 0.721; with ALW-II-49-7 + Navitoclax (first compound 2.53 µM), 0.44; in the assay with ALW-II-49-7 + Navitoclax (first compound 8 µM), 0.685; in the assay with ALW-II-49-7 + Pictilisib (first compound 0.08 µM), 0.519; with ALW-II-49-7 + Pictilisib (first compound 0.253 µM), 0.505. The relative viability worked out at 0.505 in the assay with ALW-II-49-7 + Pictilisib (first compound 0.8 µM), 0.633 with ALW-II-49-7 + Pictilisib (first compound 2.53 µM) and 0.493 in the assay with ALW-II-49-7 + Pictilisib (first compound 8 µM).
Regarding NCI-H2405, the relative viability with ALW-II-49-7 + OSI-027 (first compound 0.08 µM) is 0.634; in the assay with ALW-II-49-7 + OSI-027 (first compound 0.253 µM) it was 0.643; with ALW-II-49-7 + OSI-027 (first compound 0.8 µM), 0.583; with ALW-II-49-7 + OSI-027 (first compound 2.53 µM) it was 0.558; with ALW-II-49-7 + OSI-027 (first compound 8 µM), 0.609; in the assay with ALW-II-49-7 + Navitoclax (first compound 0.08 µM) it was 0.761. Besides, the relative viability with ALW-II-49-7 + Navitoclax (first compound 0.253 µM) was 0.974; with ALW-II-49-7 + Navitoclax (first compound 0.8 µM), 0.779; in the assay with ALW-II-49-7 + Navitoclax (first compound 2.53 µM) it was 0.241; in the assay with ALW-II-49-7 + Navitoclax (first compound 8 µM) it was 0.735; with ALW-II-49-7 + Pictilisib (first compound 0.08 µM), 0.409; with ALW-II-49-7 + Pictilisib (first compound 0.253 µM), 0.526. The relative viability with ALW-II-49-7 + Pictilisib (first compound 0.8 µM) is 0.368; with ALW-II-49-7 + Pictilisib (first compound 2.53 µM), 0.345; with ALW-II-49-7 + Pictilisib (first compound 8 µM), 0.366.
On to NCI-H3122, for which the relative viability with ALW-II-49-7 + OSI-027 (first compound 0.08 µM) was 0.905; in the assay with ALW-II-49-7 + OSI-027 (first compound 0.253 µM), 0.254; with ALW-II-49-7 + OSI-027 (first compound 0.8 µM), 1.05; in the assay with ALW-II-49-7 + OSI-027 (first compound 8 µM), 1.09; with ALW-II-49-7 + Navitoclax (first compound 0.08 µM), 1.06; with ALW-II-49-7 + Navitoclax (first compound 0.253 µM), 1.06. The relative viability was 1.07 with ALW-II-49-7 + Navitoclax (first compound 0.8 µM); 1.09 with ALW-II-49-7 + Navitoclax (first compound 2.53 µM); 1.05 in the assay with ALW-II-49-7 + Navitoclax (first compound 8 µM); 0.695 with ALW-II-49-7 + Pictilisib (first compound 0.08 µM); 0.458 with ALW-II-49-7 + Pictilisib (first compound 0.253 µM); 0.614 with ALW-II-49-7 + Pictilisib (first compound 0.8 µM). Also, the results for the relative viability with ALW-II-49-7 + Pictilisib (first compound 2.53 µM) and with ALW-II-49-7 + Pictilisib (first compound 8 µM) were 0.708 and 0.971, respectively.
In the case of PC-3 [JPC-3], the relative viability with ALW-II-49-7 + OSI-027 (first compound 0.08 µM) came out at 0.655; with ALW-II-49-7 + OSI-027 (first compound 0.253 µM), 0.733; with ALW-II-49-7 + OSI-027 (first compound 0.8 µM) it was 0.805; with ALW-II-49-7 + OSI-027 (first compound 2.53 µM), 0.688; with ALW-II-49-7 + OSI-027 (first compound 8 µM), 0.63; in the assay with ALW-II-49-7 + Navitoclax (first compound 0.08 µM), 0.693. The relative viability with ALW-II-49-7 + Navitoclax (first compound 0.253 µM) is 0.891; in the assay with ALW-II-49-7 + Navitoclax (first compound 0.8 µM), 0.757; with ALW-II-49-7 + Navitoclax (first compound 2.53 µM), 0.816; with ALW-II-49-7 + Navitoclax (first compound 8 µM) it was 0.82; with ALW-II-49-7 + Pictilisib (first compound 0.08 µM) it was 0.657; with ALW-II-49-7 + Pictilisib (first compound 0.253 µM), 0.799. The relative viability with ALW-II-49-7 + Pictilisib (first compound 0.8 µM) amounted to 0.745; with ALW-II-49-7 + Pictilisib (first compound 2.53 µM), 0.711; with ALW-II-49-7 + Pictilisib (first compound 8 µM), 0.616.
Take PC-14: the relative viability was found to be 0.815 with ALW-II-49-7 + OSI-027 (first compound 0.08 µM); 0.824 with ALW-II-49-7 + OSI-027 (first compound 0.253 µM); 0.622 in the assay with ALW-II-49-7 + OSI-027 (first compound 0.8 µM); 0.645 with ALW-II-49-7 + OSI-027 (first compound 2.53 µM); 0.579 with ALW-II-49-7 + OSI-027 (first compound 8 µM); 1.04 with ALW-II-49-7 + Navitoclax (first compound 0.08 µM). In addition, the relative viability with ALW-II-49-7 + Navitoclax (first compound 0.253 µM) came to 0.92; with ALW-II-49-7 + Navitoclax (first compound 0.8 µM) it was 0.923; in the assay with ALW-II-49-7 + Navitoclax (first compound 2.53 µM) it was 0.911; with ALW-II-49-7 + Navitoclax (first compound 8 µM), 0.86; in the assay with ALW-II-49-7 + Pictilisib (first compound 0.08 µM), 0.602; with ALW-II-49-7 + Pictilisib (first compound 0.253 µM), 0.599. The relative viability in the assay with ALW-II-49-7 + Pictilisib (first compound 0.8 µM) was 0.696; with ALW-II-49-7 + Pictilisib (first compound 2.53 µM), 0.544; in the assay with ALW-II-49-7 + Pictilisib (first compound 8 µM), 0.553.
In the case of RERF-LC-KJ, the relative viability with ALW-II-49-7 + OSI-027 (first compound 0.08 µM) amounted to 0.511; with ALW-II-49-7 + OSI-027 (first compound 0.253 µM), 0.564; with ALW-II-49-7 + OSI-027 (first compound 0.8 µM) it was 0.504; in the assay with ALW-II-49-7 + OSI-027 (first compound 2.53 µM), 0.559; with ALW-II-49-7 + OSI-027 (first compound 8 µM), 0.535; with ALW-II-49-7 + Navitoclax (first compound 0.08 µM) it was 0.876. Moreover, the relative viability with ALW-II-49-7 + Navitoclax (first compound 0.253 µM) turned out to be 1.27; with ALW-II-49-7 + Navitoclax (first compound 0.8 µM), 0.938; in the assay with ALW-II-49-7 + Navitoclax (first compound 2.53 µM), 1.05; in the assay with ALW-II-49-7 + Navitoclax (first compound 8 µM), 0.866; with ALW-II-49-7 + Pictilisib (first compound 0.08 µM), 0.599; with ALW-II-49-7 + Pictilisib (first compound 0.253 µM), 0.557. Also, the results for the relative viability with ALW-II-49-7 + Pictilisib (first compound 0.8 µM), in the assay with ALW-II-49-7 + Pictilisib (first compound 2.53 µM) and in the assay with ALW-II-49-7 + Pictilisib (first compound 8 µM) were 0.608, 0.542 and 0.624, respectively.
SK-LU-1: the relative viability with ALW-II-49-7 + OSI-027 (first compound 0.08 µM) stood at 0.269; with ALW-II-49-7 + OSI-027 (first compound 0.253 µM) it was 0.345; with ALW-II-49-7 + OSI-027 (first compound 0.8 µM), 0.313; in the assay with ALW-II-49-7 + OSI-027 (first compound 2.53 µM), 0.289; with ALW-II-49-7 + OSI-027 (first compound 8 µM), 0.252; with ALW-II-49-7 + Navitoclax (first compound 0.08 µM), 1.09. Moreover, the relative viability is 0.769 in the assay with ALW-II-49-7 + Navitoclax (first compound 0.253 µM); 1.2 with ALW-II-49-7 + Navitoclax (first compound 0.8 µM); 0.585 with ALW-II-49-7 + Navitoclax (first compound 2.53 µM); 0.474 with ALW-II-49-7 + Navitoclax (first compound 8 µM); 0.522 with ALW-II-49-7 + Pictilisib (first compound 0.08 µM); 0.715 with ALW-II-49-7 + Pictilisib (first compound 0.253 µM). Besides, the relative viability stood at 0.44 with ALW-II-49-7 + Pictilisib (first compound 0.8 µM) and 0.514 with ALW-II-49-7 + Pictilisib (first compound 8 µM).
As to SK-MES-1, the relative viability is 0.588 with ALW-II-49-7 + OSI-027 (first compound 0.08 µM); 0.547 with ALW-II-49-7 + OSI-027 (first compound 0.253 µM); 0.578 with ALW-II-49-7 + OSI-027 (first compound 0.8 µM); 0.456 with ALW-II-49-7 + OSI-027 (first compound 2.53 µM); 0.331 in the assay with ALW-II-49-7 + OSI-027 (first compound 8 µM); 1.03 with ALW-II-49-7 + Navitoclax (first compound 0.08 µM). For the same cell line, the relative viability with ALW-II-49-7 + Navitoclax (first compound 0.253 µM) amounted to 1.34; with ALW-II-49-7 + Navitoclax (first compound 0.8 µM) it was 1.15; with ALW-II-49-7 + Navitoclax (first compound 2.53 µM), 0.961; in the assay with ALW-II-49-7 + Navitoclax (first compound 8 µM), 0.647; with ALW-II-49-7 + Pictilisib (first compound 0.08 µM), 0.331; with ALW-II-49-7 + Pictilisib (first compound 0.253 µM) it was 0.48. In addition, the figures for the relative viability with ALW-II-49-7 + Pictilisib (first compound 0.8 µM), with ALW-II-49-7 + Pictilisib (first compound 2.53 µM) and in the assay with ALW-II-49-7 + Pictilisib (first compound 8 µM) were 0.367, 0.365 and 0.397, respectively.
With SW 1573, the relative viability with ALW-II-49-7 + OSI-027 (first compound 0.08 µM) is 0.683; with ALW-II-49-7 + OSI-027 (first compound 0.253 µM), 0.653; with ALW-II-49-7 + OSI-027 (first compound 0.8 µM), 0.524; in the assay with ALW-II-49-7 + OSI-027 (first compound 2.53 µM) it was 0.656; with ALW-II-49-7 + OSI-027 (first compound 8 µM) it was 0.505; with ALW-II-49-7 + Navitoclax (first compound 0.08 µM), 1.01. Further, the relative viability with ALW-II-49-7 + Navitoclax (first compound 0.253 µM) worked out at 0.932; with ALW-II-49-7 + Navitoclax (first compound 0.8 µM), 1.21; with ALW-II-49-7 + Navitoclax (first compound 2.53 µM) it was 1.11; with ALW-II-49-7 + Navitoclax (first compound 8 µM), 0.787; with ALW-II-49-7 + Pictilisib (first compound 0.08 µM), 0.475; in the assay with ALW-II-49-7 + Pictilisib (first compound 0.253 µM), 0.486. In addition, the values for the relative viability with ALW-II-49-7 + Pictilisib (first compound 0.8 µM), with ALW-II-49-7 + Pictilisib (first compound 2.53 µM) and with ALW-II-49-7 + Pictilisib (first compound 8 µM) were 0.465, 0.47 and 0.465, respectively.
